The test addresses Metabotropic glutamate receptor 3 (Rattus norvegicus) (UniProt P31422). The test is described as follows: PubChem AID 624028. To be noted: TREx293 mGlu3/Galpha15, calcium fluorescence, antagonist mode.

SMILES strings stand for the structures.

Metabotropic glutamate receptor 3 (Rattus norvegicus), sequence (P31422 whole entry, looked up): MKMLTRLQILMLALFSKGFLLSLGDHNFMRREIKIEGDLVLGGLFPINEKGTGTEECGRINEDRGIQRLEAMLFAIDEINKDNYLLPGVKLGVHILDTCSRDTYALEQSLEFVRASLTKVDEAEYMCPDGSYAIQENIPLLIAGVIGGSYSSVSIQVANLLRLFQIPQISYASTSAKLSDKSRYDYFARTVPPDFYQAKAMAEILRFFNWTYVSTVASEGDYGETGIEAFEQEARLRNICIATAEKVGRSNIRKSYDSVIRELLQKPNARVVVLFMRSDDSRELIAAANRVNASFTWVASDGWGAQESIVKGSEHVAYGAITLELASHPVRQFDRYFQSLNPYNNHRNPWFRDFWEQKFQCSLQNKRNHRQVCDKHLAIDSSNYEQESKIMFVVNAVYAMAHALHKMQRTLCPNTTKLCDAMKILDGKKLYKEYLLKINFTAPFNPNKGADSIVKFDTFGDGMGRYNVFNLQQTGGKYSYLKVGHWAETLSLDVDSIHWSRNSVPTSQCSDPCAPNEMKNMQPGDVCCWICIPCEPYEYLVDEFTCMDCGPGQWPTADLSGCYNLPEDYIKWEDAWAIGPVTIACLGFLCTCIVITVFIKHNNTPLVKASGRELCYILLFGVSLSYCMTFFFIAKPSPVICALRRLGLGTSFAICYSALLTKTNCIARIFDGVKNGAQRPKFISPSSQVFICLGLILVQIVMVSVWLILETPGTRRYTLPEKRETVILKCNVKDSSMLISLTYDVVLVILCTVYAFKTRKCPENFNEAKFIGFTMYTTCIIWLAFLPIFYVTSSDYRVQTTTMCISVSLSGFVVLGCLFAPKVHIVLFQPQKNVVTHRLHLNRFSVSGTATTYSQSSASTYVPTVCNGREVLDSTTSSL

One may read the IC50 as the concentration that inhibits the measured activity by half. For `COc1ccc(C#Cc2ccc(C(=O)N3CCC[C@@H](CO)C3)cc2)cc1`, the IC50 was 650 nM.

(Values after PubChem BioAssay AID624028 (Vanderbilt Specialized Chemistry Center, 2012).)
